Data taken from patent US20030212074A1, “Phosphate transport inhibitors” (priority 2000, published 2003).

Each compound was assayed on Sodium-dependent phosphate transport (assay: Phosphate uptake assay in human proximal tubule cells (32P-labelled inorganic phosphate uptake)). Details: whole cell assay, 32P uptake.
Assay type: cell-based
Description: Sodium-dependent phosphate transport inhibition is determined by the ability of the test compound to inhibit the uptake of radio-labeled inorganic phosphate by proximal tubule cells. Appropriate cells from human, rabbit, or rat may be used.
Cell Preparation and Phosphate Uptake Assay.
Rabbit proximal tubule cells were isolated and cultured according to the procedure of Sakhrani, L. M. et al., Am. J. Physiol. 246:F757-F764, (1984) whose disclosure is incorporated herein by reference in its entirety. Human proximal tubule cells were purchased from Clonetics (San Diego, Calif.) and grown according to the suppliers' instructions. On the day of the experiment, cells were harvested from culture plates with 0.5 mM EDTA in phosphate buffered saline. The cells were washed twice in uptake buffer (see below) and equilibrated at 37 C in the same buffer for 30 minutes. Aliquots of cells (100 ul, 0.5 to 1 million cells) were distributed into glass test tubes. Fifty ul of drug solution or buffer were added followed by 50 ul of uptake buffer containing 100 uM [^32P]-K2HPO4 (0.5 to 1 uCi/tube).After varying periods of time (usually 4 minutes) at 37 C, uptakes were stopped with 4 ml of cold stop solution (see below) and the cells were washed 3 times in this solution by centrifugation. The pelleted cells were dissolved in 0.5 ml 1 N NaOH and ^32P was counted in a liquid scintillation counter. Phosphate uptake is expressed as pmol phosphate/mg cell protein.
In the above noted whole cell assay system for rabbit and human proximal tubule cells the cells are harvested by filtration and ^32P uptake is measured. It is also possible to use ^33P rather than ^32P.

IC50 [µM] | SMILES
15 | O=C(Nc1ccc(Br)cc1)c1cc(Br)ccc1NS(=O)(=O)c1ccccc1F [5-bromo-N-(4-bromophenyl)-2-(2-fluorophenylsulfonamido)benzamide]
14 | O=C(Nc1ccc(Br)cc1)c1cc(Br)ccc1NS(=O)(=O)CCCCl [5-bromo-N-(4-bromophenyl)-2-(3-chloropropylsulfonamido)benzamide]
12 | O=C(Nc1ccc(Br)cc1)c1cc(Br)ccc1NS(=O)(=O)c1ccc(Cl)s1 [5-bromo-N-(4-bromophenyl)-2-(5-chloro-2-thienylsulfonamido)benzamide]
